# Measurements as given in patent US20250162986A1, “Compounds and compositions for neurodegenerative diseases” (Universidade Nova de Lisboa, priority 2022, published 2025).
# Structures can show the parent of a compound that is named as a salt.
# Key:
# Format in all cases: cell-based
# [1] = tested on: N9 mouse microglia cell line; assay: LPS-induced TNF-α release in microglia cells (ELISA); conditions: for activity at 5 µM: Mus musculus, Microglia, read-out: TNFα release (Fold-change relative to LPS); for release of TNF-α (FIG. 1): 100 nM, 2, 4 and 6 hours pre-incubation; for attenuation of TNFα release at lower concentrations: at and below 100 nanomolar (data not shown)
# Experimental: (§1) The “N9” murine microglia cell line was cultured in EMEM (Eagle Minimum Essential Media) supplemented with 10% (v/v) FBS, […] L-glutamine, 1% (v/v) NEAA and maintained at 37° C., 5% (v/v) CO2. Experiments were performed on 24-well plates. Compounds were incubated in cells for the indicated amount of time (2, 4 or 6 hours) before the addition of the indicated inflammatory stimuli (Lipopolysaccharide (LPS) or TNFα:IFNγ).
# The experiment was conducted in vitro using N9 mouse microglia cell line. Phenolic metabolites or derived-thereof were pre-incubated for 6 hours at 5 micromolar with microglia cells in cell media. Afterwards cells were washed and incubated with lipopolysaccharides for 24 hours. At the end of this period cell media was collected and the presence of TNF-α analyzed using ELISA, thus showing the results as shown in Table 1.
# In an embodiment compounds resorcinol-sulfate and phloroglucinol-sulfate were pre-incubated at 100 nanomolar for 2, 4, 6 hours with the cells in the cell media. Afterwards cells were washed and incubated with lipopolysaccharides for 24 hours. At the end of this period cell media was collected and the presence of TNF-α analyzed using ELISA, thus showing the results as substantially depicted in FIG. 1.
# [2] = tested on: N9 mouse microglia cell line; assay: LPS-induced production of multiple cytokines in microglia cells (flow cytometry, LEGENDplex); conditions: 100 nM, 6 hours pre-incubation, then 24 hours lipopolysaccharides
# Experimental: as §1
# (§2) The experiment was conducted in vitro using N9 mouse microglia cell line. Phenolic metabolites were pre-incubated for 6 hours in the cell media at the indicated concentration. Afterwards cells were washed and incubated with lipopolysaccharides for 24 hours. At the end of this period cell media was collected and the presence of various cytokines analyzed using flow cytometry (LEGENDplex™ Mouse Macrophage/Microglia Panel), thus showing the results as substantially depicted in FIG. 2.
# [3] = tested on: LUHMES cells (human dopaminergic cell line); assay: Cell viability and ATP levels after MPP+ oxidative insult; conditions: 24 hours pre-treatment at 5 μM, then 24 hours MPP+; for ATP levels (FIG. 5B): luciferase; for cell viability (metabolic capacity) (FIG. 5A): resazurin
# Experimental: The LUHMES cells (human dopaminergic cell line) were cultured in advanced DMEM-F12 ([…]) at 37° C. with 5% (v/v) CO2. Experiments were performed in 24 well plates. Compounds were incubated for 24 hours before addition of Parkinson inducing toxin MPP+ was added to cells.
# The experiment was conducted in vitro using “LUHMES”, human dopaminergic cell line at 37° C. with 5% CO2. Phenolic metabolites were incubated for 24 hours at 5 μM. After this period cells were washed and incubated (or not) with MPP+ ([…]) for 24 hours in order to produce the oxidative insult, that mimics the dopaminergic lesions found in several neurodegenerative diseases, namely in Parkinson's Disease brain. Afterwards cell medium was replaced with new medium including the cell metabolic dyes: resazurin for 2 hours or luciferase for 30 min. Colour development was measured by fluorescence and luminescence respectively, in a Synergy (Biotek) plate reader, thus showing the results as substantially depicted in FIG. 5.
# [4] = tested on: N9 mouse microglia cell line; assay: TNF-α and IFNγ-induced production of multiple cytokines in microglia cells (flow cytometry, LEGENDplex); conditions: 100 nM, 6 hours pre-incubation, then 24 hours TNF-α 10 nM plus IFNγ 1 nM
# Experimental: as §1
# as §2, with “in the regular cell media” for “in the cell media”, “incubated with TNF-α 10 nM plus IFNγ 1 nM for 24” for “incubated with lipopolysaccharides for 24”, “in FIG. 3.” for “in FIG. 2.”
# [5] = 5 micromolar, 6 hours pre-incubation, then 24 hours lipopolysaccharides, ELISA
# [6] = then 24 hours lipopolysaccharides
smiles,measurement,setting,value
"O=S(=O)(O)Oc1ccc(CO)c(O)c1O [2,3-dihydroxy-4-(hydroxymethyl)phenyl hydrogen sulfate]",activity at 5 µM,[1]; [5],48 ± 7%
"O=S(=O)(O)Oc1cccc(O)c1 [Resorcinol-sulfate, 3-hydroxyphenyl hydrogen sulfate]","multiple cytokines (G-CSF, TNF-α, IL-6, IL-10, IL-1β, CCL17, IL-12p40, TGFβ1, CCL22, IL18, CXCL1) (FIG. 2)",[2],reduction in multiple cytokines
same,ATP levels (FIG. 5B),[3],protective effects
same,cell viability (metabolic capacity) (FIG. 5A),[3],protective effects
same,release of TNF-α (FIG. 1),[1]; [6],reduction in release of TNF-α
same,activity at 5 µM,[1]; [5],58 ± 13%
same,attenuation of TNFα release at lower concentrations,[1],capability to attenuate TNFα release at lower concentrations
same,"multiple cytokines (TNF-α, CCL22, IL-10, CCL17, IL-1β, CXCL1, G-CSF, IL-6, IL-18, TGFβ1, IL23, IL-12p40, IL-12p70) (FIG. 3)",[4],reduction in multiple cytokines
"Cc1ccc(OS(=O)(=O)O)c(O)c1O [2,3-dihydroxy-4-methylphenyl hydrogen sulfate]",activity at 5 µM,[1]; [5],45 ± 4%
COc1c(O)cc(C(=O)O)cc1OS(=O)(=O)O [4-O-methyl gallic acid-3-sulfate],TNFα release (Fold-change relative to LPS),[1]; [5],0.50 ± 0.07 Fold-change relative to LPS
"O=S(=O)(O)Oc1cc(O)cc(O)c1 [Phloroglucinol-sulfate, 3,5-dihydroxyphenyl hydrogen sulfate]","multiple cytokines (G-CSF, TNF-α, IL-6, IL-10, IL-1β, CCL17, IL-12p40, TGFβ1, CCL22, IL18, CXCL1) (FIG. 2)",[2],reduction in multiple cytokines
same,ATP levels (FIG. 5B),[3],protective effects
same,cell viability (metabolic capacity) (FIG. 5A),[3],protective effects
same,release of TNF-α (FIG. 1),[1]; [6],reduction in release of TNF-α
same,activity at 5 µM,[1]; [5],57 ± 6%
same,attenuation of TNFα release at lower concentrations,[1],capability to attenuate TNFα release at lower concentrations
same,"multiple cytokines (TNF-α, CCL22, IL-10, CCL17, IL-1β, CXCL1, G-CSF, IL-6, IL-18, TGFβ1, IL23, IL-12p40, IL-12p70) (FIG. 3)",[4],reduction in multiple cytokines
COc1c(O)cccc1OS(=O)(=O)O [3-hydroxy-2-methoxyphenyl hydrogen sulfate],activity at 5 µM,[1]; [5],65 ± 8%
COc1cccc(OS(=O)(=O)O)c1O [2-hydroxy-3-methoxyphenyl hydrogen sulfate],activity at 5 µM,[1]; [5],65 ± 11%
COc1cc(O)cc(OS(=O)(=O)O)c1 [3-hydroxy-5-methoxyphenyl hydrogen sulfate],activity at 5 µM,[1]; [5],57 ± 6%
COc1cc(C(=O)O)ccc1OS(=O)(=O)O [3-methoxy-4-(sulfooxy)benzoic acid],activity at 5 µM,[1]; [5],56 ± 16%
